Laboratory results published in patent publication US11254680B2, “Cyclic iminopyrimidine derivatives as kinase inhibitors” (ABM Therapeutics Corporation, priority 2017, dated 2022).

Legend:
P-glycoprotein (MDR1) = test: MDCK-MDR1 Permeability Assay; format: in vitro ADME, canine; details: dog; for efflux ratio at 120 min: MDCK-MDR1, Papp(B-A)/Papp(A-B); for Papp A→B at 120 min: MDCK-MDR1, apical to basolateral; for Papp A→B at 120 min / Papp B→A at 120 min: 1-30 μM; for Papp B→A at 120 min: MDCK-MDR1, basolateral to apical
Protocol: MDCK-MDR1 cells originate from transfection of Madin Darby canine kidney (MDCK) cells with the MDR1 gene, the gene encoding for the efflux protein, P-glycoprotein. This cell line is ideal for identifying substrates of P-gp, with or without an inhibitor. The cells are seeded on a Multiscreen™ plate to form a confluent monolayer over 4 days prior to the experiment. On day 4, the test compound (1-30 μM concentration) is added to the apical side of the membrane and the transport of the compound across the monolayer is monitored over a 120 minutes time period. To study drug efflux, it is also necessary to investigate transport of the compound from the basolateral compartment to the apical compartment and calculate an efflux ratio.
(§1) The permeability coefficient (Papp) is calculated from the following equation: Papp=[(dQ/dt)/C0×A] where dQ/dt is the rate of permeation of the drug across the cells, C0 is the donor compartment concentration at time zero and A is the area of the cell monolayer.
An efflux ratio is calculated from the mean apical to basolateral (A-B) Papp data and basolateral to apical (B-A) Papp data. Efflux Ratio=Papp(B−A)/Papp(A−B)

[1] = Caco-2 Permeability Assay; format: in vitro ADME; details: human; for efflux ratio at 120 min: Caco-2; for Papp A→B at 120 min: Caco-2, apical to basolateral; for Papp A→B at 120 min / Papp B→A at 120 min: 1-30 μM; for Papp B→A at 120 min: Caco-2, basolateral to apical
Protocol: Caco-2 cells are widely used as an in vitro assay to measure the permeability of a drug compound. The Caco-2 cell line is derived from a human colorectal carcinoma, and when cultured, the cells spontaneously differentiate into monolayers of polarized enterocytes. Caco-2 cells express P-glycoprotein and breast cancer resistance protein, two of the most relevant cell membrane active transporters that affect drug compound's permeability into cells and blood brain barrier.
The cells are seeded on Millipore Millicell plates and form a confluent monolayer over 20 days prior to the experiment. On day 20, the test compound (1-30 μM concentration) is added to the apical side of the membrane and the transport of the compound across the monolayer is monitored over a 120 minutes time period. To study drug efflux, it is also necessary to investigate transport of the compound from the basolateral compartment to the apical compartment.
as §1, with “monolayer. C0 is obtained from analysis of the dosing solution at the start experiment.” for “monolayer.”

A375 melanoma cells = test: Antiproliferation assay in A375 cell line by CellTiter Glo; format: cell-based; details: Homo sapiens, A-375, 72 hours or 144 hours
Protocol: In vitro anti-proliferation study of test compounds in A375 cell line by CellTiter Glo. The cells were routinely maintained as a monolayer culture in corresponding culture medium, at 37° C. with 5% CO2 in air.
Harvest the exponential growth cells by trypsin-EDTA digestion. Re-suspend the cell pellet in fresh culture medium, and adjust the concentration to needed (the cell density per well was listed in following form). The cell viability is over 98% by Trypan blue staining. Inoculate cells into 96 wells plates according to the plate map (90 μL/well). Incubate the plates at 37° C. and 5% CO2 overnight. The next day, prepare the 10×compound containing medium according to the plate map. Transfer 10 μL of 10×compound containing medium into each well of the assay plates (the final DMSO concentration is 0.5%). Gently mix the medium and incubate at 37° C. and 5% CO2 for another 72 hours or 144 hours.
Prepare the reagent according to the manufacture's instruction. Add 50 μL CellTiter-Glo Reagent in each well. Mix contents for 2 minutes on an orbital shaker to induce cell lysis. Allow the plate to incubate at room temperature for 10 minutes to stabilize luminescent signal. Transfer 100 μL of reaction contents of each well from the clear plates into white walled/white opaque 96-well plates. Record the luminescence on Envision.
Using the luminescence measurements [time zero (T0), control growth (C), and test growth in the presence of drug at the six concentration levels (Ti)], the percentage growth is calculated at each of the drug concentrations levels.
Percentage growth inhibition (GI) is calculated as: GI (%)═[(Ti-T0)/(C-T0)]×100 for concentrations for which Ti>=T0, and GI (%)═[(Ti-T0)/T0]×100 for concentrations for which Ti<T0. Data were analyzed using the XLFit (Excel) tool, fitting to a 4-parameter equation to generate concentration response curves. Concentration of compound that inhibits 50% of control cell growth (GI50) was back-interpolated when y=50% of net growth of DMSO treated control wells using nonlinear regression with the equation: f(x) 205 [fit=(A+((B−A)/(1+((C/x)^))))], where A is the minimum response (Ymin), B is the maximum response (Ymax), C is the inflection point of the curve (Re GI50) and D is the Hill coefficient. Growth inhibition of 50% (GI50) was calculated at the 50% Growth inhibition on the curve. Index values were the sum of Inhibition rate (IR) at each tested compound concentration.

HT-29 colon cancer cells = test: Antiproliferation assay in HT-29 cells by CellTiter Glo; format: cell-based; details: Homo sapiens, 72 hours or 144 hours
[2] = Mouse Pharmacokinetics Study; format: in vivo; details: CD-1 mice
Text: The pharmacokinetic properties of selected compounds were studied CD-1 mice via intravenous and oral administration by using a standard protocol. The test articles were formulated in 20% Hydroxypropyl-beta-cyclodextrin, either as a clear solution or fine suspension.

| Structure (SMILES) | efflux ratio at 120 min (P-glycoprotein (MDR1)) | Papp A→B at 120 min (P-glycoprotein (MDR1)) | Papp B→A at 120 min (P-glycoprotein (MDR1)) | efflux ratio at 120 min [1] | Papp A→B at 120 min [1] | Papp B→A at 120 min [1] | GI50 (A375 melanoma cells) | GI50 (HT-29 colon cancer cells) | F ([2]; PO 25 mg/kg) | Vd ([2]; mouse, plasma, IV 2.5 mg/kg) | half-life ([2]; mouse, plasma, IV 2.5 mg/kg, 20% Hydroxypropyl-beta-cyclodextrin) | clearance ([2]; mouse, plasma, IV 2.5 mg/kg, read-out: Clp) | AUC ([2]; mouse, PO 25 mg/kg, plasma) | Cmax ([2]; mouse, PO 25 mg/kg, plasma) | Tmax ([2]; mouse, PO 25 mg/kg, plasma) |
| --- | --- | --- | --- | --- | --- | --- | --- | --- | --- | --- | --- | --- | --- | --- | --- |
| N#Cc1c(NS(=O)(=O)c2ccccc2F)cccc1Oc1ccc2c(c1)C1=NCCN1C=N2 [Compound 14, N-(2-Cyano-3-((2,3-dihydroimidazo[1,2-c]quinazolin-9-yl)oxy)phenyl)-2-fluorobenzenesulfonamide] | 2.73 | 3.03 ×10⁻⁶ cm/s | 8.29 ×10⁻⁶ cm/s | 2.77 | 6.37 ×10⁻⁶ cm/s | 17.7 ×10⁻⁶ cm/s | < 100 nM |  |  |  |  |  |  |  |  |
| CCCS(=O)(=O)Nc1cccc(Oc2ccc3c(c2)C2=NCCN2C=N3)c1[N+](=O)[O-] [Compound 12, N-(3-((2,3-Dihydroimidazo[1,2-c]quinazolin-9-yl)oxy)-2-nitrophenyl)propane-1-sulfonamide] | 4.3 | 6.6 ×10⁻⁶ cm/s | 28.4 ×10⁻⁶ cm/s |  |  |  | < 100 nM |  |  |  |  |  |  |  |  |
| CCCS(=O)(=O)Nc1ccc(F)c(Oc2ccc3c(c2)C2=NCCCN2C=N3)c1C#N [Compound 17, N-(2-cyano-3-((3,4-dihydro-2H-pyrimido[1,2-c]quinazolin-10-yl)oxy)-4-fluorophenyl)propane-1-sulfonamide] | 13.2 | 0.7 ×10⁻⁶ cm/s | 9.28 ×10⁻⁶ cm/s |  |  |  | < 100 nM |  |  |  |  |  |  |  |  |
| N#Cc1c(NS(=O)(=O)c2cccs2)cccc1Oc1ccc2c(c1)C1=NCCN1C=N2 [Compound 15, N-(2-Cyano-3-((2,3-dihydroimidazo[1,2-c]quinazolin-9-yl)oxy)phenyl)thiophene-2-sulfonamide] | 1.73 | 3.1 ×10⁻⁶ cm/s | 5.36 ×10⁻⁶ cm/s | 2.94 | 5.08 ×10⁻⁶ cm/s | 14.9 ×10⁻⁶ cm/s | 100 to 1000 nM |  |  |  |  |  |  |  |  |
| CCCS(=O)(=O)N(C)c1cccc(Oc2ccc3c(c2)C2=NCCN2C=N3)c1C#N [Compound 2, N-(2-Cyano-3-((2,3-dihydroimidazo[1,2-c]quinazolin-9-yl)oxy)phenyl)-N-methylpropane-1-sulfonamide] | 2.63 | 19 ×10⁻⁶ cm/s | 50 ×10⁻⁶ cm/s |  |  |  | > 1000 nM |  |  |  |  |  |  |  |  |
| CCCS(=O)(=O)Nc1c(F)ccc(Oc2ccc3c(c2)C2=NCCN2C=N3)c1C#N [Compound 5, N-(2-Cyano-3-((2,3-dihydroimidazo[1,2-c]quinazolin-9-yl)oxy)-6-fluorophenyl)propane-1-sulfonamide] | 1.82 | 1.21 ×10⁻⁶ cm/s | 2.19 ×10⁻⁶ cm/s |  |  |  | 100 to 1000 nM |  |  |  |  |  |  |  |  |
| CCCS(=O)(=O)Nc1nccc(Oc2ccc3c(c2)C2=NCCCN2C=N3)c1Cl [Compound 26, N-(3-Chloro-4-((3,4-dihydro-2H-pyrimido[1,2-c]quinazolin-10-yl)oxy)pyridin-2-yl)propane-1-sulfonamide] | 4.98 | 3.95 ×10⁻⁶ cm/s | 19.6 ×10⁻⁶ cm/s |  |  |  | < 100 nM | < 100 nM |  |  |  |  |  |  |  |
| CCCS(=O)(=O)Nc1ccc(F)c(Oc2ccc3c(c2)C2=NCCN2C=N3)c1C#N [Compound 3, N-(2-Cyano-3-((2,3-dihydroimidazo[1,2-c]quinazolin-9-yl)oxy)-4-fluorophenyl)propane-1-sulfonamide] | 9.85 | 2.15 ×10⁻⁶ cm/s | 21.2 ×10⁻⁶ cm/s | 1.48 | 9.24 ×10⁻⁶ cm/s | 13.7 ×10⁻⁶ cm/s | < 100 nM |  |  |  |  |  |  |  |  |
| CCCS(=O)(=O)Nc1cccc(Oc2ccc3c(c2)C2=NCCCN2C=N3)c1C#N [Compound 16, N-(2-cyano-3-((3,4-dihydro-2H-pyrimido[1,2-c]quinazolin-10-yl)oxy)phenyl)propane-1-sulfonamide] | 8.79 | 1.01 ×10⁻⁶ cm/s | 8.89 ×10⁻⁶ cm/s |  |  |  | < 100 nM | < 100 nM |  |  |  |  |  |  |  |
| CCCS(=O)(=O)Nc1nccc(Oc2ccc3c(c2)C2=NCCCN2C=N3)c1[N+](=O)[O-] [Compound 23, N-(4-((3,4-Dihydro-2H-pyrimido[1,2-c]quinazolin-10-yl)oxy)-3-nitropyridin-2-yl)propane-1-sulfonamide] |  |  |  |  |  |  | > 1000 nM | > 1000 nM |  |  |  |  |  |  |  |

The remaining lines, values ahead:

| efflux ratio at 120 min (P-glycoprotein (MDR1)) | Papp A→B at 120 min (P-glycoprotein (MDR1)) | Papp B→A at 120 min (P-glycoprotein (MDR1)) | efflux ratio at 120 min [1] | Papp A→B at 120 min [1] | Papp B→A at 120 min [1] | GI50 (A375 melanoma cells) | GI50 (HT-29 colon cancer cells) | F ([2]; PO 25 mg/kg) | Vd ([2]; mouse, plasma, IV 2.5 mg/kg) | half-life ([2]; mouse, plasma, IV 2.5 mg/kg, 20% Hydroxypropyl-beta-cyclodextrin) | clearance ([2]; mouse, plasma, IV 2.5 mg/kg, read-out: Clp) | AUC ([2]; mouse, PO 25 mg/kg, plasma) | Cmax ([2]; mouse, PO 25 mg/kg, plasma) | Tmax ([2]; mouse, PO 25 mg/kg, plasma) | Structure (SMILES) |
| --- | --- | --- | --- | --- | --- | --- | --- | --- | --- | --- | --- | --- | --- | --- | --- |
| 1.22 | 34.6 ×10⁻⁶ cm/s | 42.3 ×10⁻⁶ cm/s |  |  |  | 100 to 1000 nM |  |  |  |  |  |  |  |  | CCCS(=O)(=O)Nc1cccc(Oc2ccc3c(c2)C2=NCCN2C=N3)c1C(F)(F)F [Compound 11, N-(3-((2,3-Dihydroimidazo[1,2-c]quinazolin-9-yl)oxy)-2-(trifluoromethyl)phenyl)propane-1-sulfonamide] |
| 2.47 | 17.6 ×10⁻⁶ cm/s | 43.4 ×10⁻⁶ cm/s |  |  |  | 100 to 1000 nM |  |  |  |  |  |  |  |  | CCCS(=O)(=O)Nc1cccc(Oc2ccc3c(c2)C2=NCCN2C=N3)c1F [Compound 9, N-(3-((2,3-Dihydroimidazo[1,2-c]quinazolin-9-yl)oxy)-2-fluorophenyl)propane-1-sulfonamide] |
| 2.79 | 20.8 ×10⁻⁶ cm/s | 57.9 ×10⁻⁶ cm/s |  |  |  | < 100 nM |  |  |  |  |  |  |  |  | O=S(=O)(Nc1cccc(Oc2ccc3c(c2)C2=NCCN2C=N3)c1Cl)N1CC[C@@H](F)C1 [Compound 46, (R)—N-(2-Chloro-3-((2,3-dihydroimidazo[1,2-c]quinazolin-9-yl)oxy)phenyl)-3-fluoropyrrolidine-1-sulfonamide] |
|  |  |  | 2.2 | 11.3 ×10⁻⁶ cm/s | 24.9 ×10⁻⁶ cm/s | < 100 nM | 100 to 1000 nM |  |  |  |  |  |  |  | CCCS(=O)(=O)Nc1cccc(Oc2ccc3c(c2)C2=NCCCN2C=N3)c1F [Compound 18, N-(3-((3,4-Dihydro-2H-pyrimido[1,2-c]quinazolin-10-yl)oxy)-2-fluorophenyl)propane-1-sulfonamide] |
| 1.42 | 26.3 ×10⁻⁶ cm/s | 37.2 ×10⁻⁶ cm/s | 0.31 | 43.5 ×10⁻⁶ cm/s | 13.5 ×10⁻⁶ cm/s | < 100 nM | 100 to 1000 nM | 58.9 ± 21.5% | 1.22 ± 0.16 L/kg | 28 ± 0.72 min | 30.3 ± 4.64 mL/min/kg | 8220 ± 3000 ng·h/mL | 4220 ± 1350 ng/mL | 15 min | CCCS(=O)(=O)Nc1cccc(Oc2ccc3c(c2)C2=NCCN2C=N3)c1Cl [Compound 6, N-(2-Chloro-3-((2,3-dihydroimidazo[1,2-c]quinazolin-9-yl)oxy)phenyl)propane-1-sulfonamide] |
